Results on eleven compounds are retold here after ChEMBL document CHEMBL1201862, “PubChem BioAssay data set” (2004).

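Cultured in 96-well plates, cells were exposed to test compound for 48 hours across five concentrations. GI50: concentration for 50% inhibition of growth.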 The source made the active and inactive calls. No stated cut-off is given here; in the data, active = GI50 up to about 1.1 µM and inactive = higher.

Among the test systems are HCT-116; KM12; HT-29; UACC-62; SK-MEL-28; NCI/ADR-RES; SK-MEL-2; OVCAR-8; MDA-N; IGROV-1; A549; U-251; HL-60; SW-620; NCI-H522; OVCAR-5; COLO 205; HOP-62; LOX IMVI; T47D.
Assay in all cases: inhibition of tumour cell growth, NCI panel, 48 h

For the compound `Cc1c(S(=O)(=O)c2ccccc2)c(N)n(Cc2ccccc2)c1C`, the GI50 with HCT-116, in the assay on KM12, in the assay on HT-29, in the assay on UACC-62, with SK-MEL-28 and in the assay with NCI/ADR-RES was > 100 µM (inactive) throughout. Besides, the GI50 in the assay on SK-MEL-2, in the assay with OVCAR-8, in the assay with MDA-N, with IGROV-1, with A549 and with U-251 was > 100 µM (inactive) each time. The GI50 in the assay with HL-60, with SW-620, in the assay on NCI-H522, in the assay with OVCAR-5 and in the assay on COLO 205 was > 100 µM (inactive) in each case.
In the case of `O=C(c1ccccc1)n1c2ccc(Br)cc2c2nc3ccccc3nc21`, the GI50 with HCT-116, in the assay on KM12, in the assay with HT-29, in the assay on UACC-62, in the assay on SK-MEL-28 and in the assay on NCI/ADR-RES was > 100 µM (inactive) in each case. The GI50 is 15.9 µM (inactive) in the assay with HOP-62; 95.3 µM (inactive) with SK-MEL-2; > 100 µM (inactive) with OVCAR-8; > 100 µM (inactive) with MDA-N; 67.6 µM (inactive) in the assay with IGROV-1; 65 µM (inactive) with U-251. Also, the GI50 with LOX IMVI was > 100 µM (inactive); in the assay with HL-60 it was > 100 µM (inactive); with SW-620, > 100 µM (inactive); in the assay on NCI-H522, 43.7 µM (inactive); in the assay on OVCAR-5, > 100 µM (inactive); with COLO 205, > 100 µM (inactive).
As to `O=c1oc2ccccc2c2c1Sc1ccccc1N2`, the GI50 in the assay with HCT-116 was 89.3 µM (inactive); in the assay with KM12 it was 70.5 µM (inactive); in the assay on HT-29, > 100 µM (inactive); in the assay with UACC-62, 50.1 µM (inactive); in the assay on SK-MEL-28, > 100 µM (inactive); in the assay with NCI/ADR-RES it was > 100 µM (inactive). Also, the GI50 is > 100 µM (inactive) in the assay on HOP-62; 2.58 µM (inactive) with SK-MEL-2; > 100 µM (inactive) in the assay on OVCAR-8; > 100 µM (inactive) in the assay on IGROV-1; > 10 µM (inactive) in the assay with A549; 58.3 µM (inactive) with U-251. Moreover, the GI50 in the assay with LOX IMVI was > 100 µM (inactive); with HL-60 it was > 100 µM (inactive); in the assay on SW-620, > 100 µM (inactive); with T47D, 0.897 µM (active); in the assay on NCI-H522, > 100 µM (inactive); in the assay with OVCAR-5, > 100 µM (inactive). Besides, the GI50 in the assay with COLO 205 is > 100 µM (inactive).
With `CC1=NN(C2=NS(=O)(=O)c3ccccc3N2C)C(=O)C1`, the GI50 in the assay with HCT-116, in the assay on KM12, in the assay with HT-29, with UACC-62, with SK-MEL-28 and in the assay on NCI/ADR-RES was > 100 µM (inactive) each time. The GI50 in the assay with HOP-62, in the assay with SK-MEL-2, with OVCAR-8, with IGROV-1, with A549 and in the assay with U-251 was > 100 µM (inactive) throughout. For the same compound, the GI50 with LOX IMVI, in the assay on HL-60, in the assay on SW-620, in the assay with T47D, in the assay with NCI-H522 and with OVCAR-5 was > 100 µM (inactive) throughout. In addition, the GI50 in the assay with COLO 205 is > 100 µM (inactive).
As for `O=C(OCN1C(=O)C2C3C=CC(C2C1=O)C1C2C(=O)N(COC(=O)C4CCCN4)C(=O)C2C31)C1CCCN1` (stereo not drawn), the GI50 with HCT-116 was 28.8 µM (inactive); in the assay on KM12 it was > 94 µM (inactive); in the assay on HT-29, 67 µM (inactive); in the assay on UACC-62 it was > 76.7 µM (inactive); in the assay with SK-MEL-28 it was > 83.9 µM (inactive); in the assay with HOP-62 it was > 100 µM (inactive). In addition, the GI50 in the assay with SK-MEL-2 was > 31.6 µM (inactive); in the assay on OVCAR-8 it was 25.5 µM (inactive); in the assay with IGROV-1, > 91 µM (inactive); with A549, 62.5 µM (inactive); in the assay on U-251 it was > 45.8 µM (inactive); in the assay with LOX IMVI, 35.9 µM (inactive). Also, the GI50 with HL-60 was 22.1 µM (inactive); in the assay with SW-620, 30.2 µM (inactive); with NCI-H522, 78.3 µM (inactive); in the assay with OVCAR-5 it was > 100 µM (inactive); in the assay on COLO 205, 59.8 µM (inactive).
Consider `O=C1CCC(c2ccccc2)C(O)(C(=O)O)C1` (stereo not drawn), for which the GI50 in the assay with HCT-116, in the assay with KM12, with HT-29, in the assay with UACC-62, in the assay with SK-MEL-28 and in the assay on HOP-62 was > 100 µM (inactive) throughout. The GI50 in the assay with SK-MEL-2, with OVCAR-8, with IGROV-1, in the assay with A549, with U-251 and with LOX IMVI was > 100 µM (inactive) in each case. Also, the GI50 with HL-60, with SW-620, with NCI-H522, with OVCAR-5 and with COLO 205 was > 100 µM (inactive) each time.
As for `Cc1c2c(n3c(nc4ccccc43)c1C#N)N(c1ccc(Cl)cc1)CC2`, the GI50 with HCT-116, with HT-29, with UACC-62, with SK-MEL-28, with NCI/ADR-RES and in the assay on HOP-62 was > 100 µM (inactive) throughout. For the same compound, the GI50 in the assay with SK-MEL-2, in the assay on OVCAR-8, in the assay with MDA-N, in the assay on IGROV-1, with A549 and with U-251 was > 100 µM (inactive) throughout. The GI50 with LOX IMVI, in the assay on HL-60, with SW-620, in the assay on NCI-H522, in the assay on OVCAR-5 and in the assay on COLO 205 was > 100 µM (inactive) throughout.
For `CSc1nc(NC2OC(COC(C)=O)C(OC(C)=O)C(OC(C)=O)C2OC(C)=O)c(/N=C/C=N/c2c(NC3OC(COC(C)=O)C(OC(C)=O)C(OC(C)=O)C3OC(C)=O)nc(SC)[nH]c2=O)c(=O)[nH]1` (stereo not drawn), the GI50 with HCT-116, in the assay with KM12, in the assay with HT-29, in the assay with UACC-62, in the assay on SK-MEL-28 and in the assay with HOP-62 was > 100 µM (inactive) each time. For the same compound, the GI50 with SK-MEL-2, in the assay on OVCAR-8, in the assay on IGROV-1, in the assay with A549, in the assay with U-251 and in the assay with LOX IMVI was > 100 µM (inactive) throughout. In addition, the GI50 with HL-60, in the assay with SW-620, with NCI-H522, in the assay with OVCAR-5 and in the assay with COLO 205 was > 100 µM (inactive) in each case.
On to `COC1=CC(=O)C(O)=C(CC2(C)C(C)CCC3(C)C2CCCC3(C)C)C1=O` (stereo not drawn), for which the GI50 with HCT-116 was 5.12 µM (inactive); in the assay on KM12, 6.44 µM (inactive); with HT-29 it was 10.3 µM (inactive); in the assay with UACC-62, 2.04 µM (inactive); with SK-MEL-28, 4.43 µM (inactive); with HOP-62, 3.64 µM (inactive). The GI50 was 3.06 µM (inactive) with SK-MEL-2; 4.57 µM (inactive) in the assay with OVCAR-8; 5.2 µM (inactive) in the assay with IGROV-1; 2.99 µM (inactive) in the assay on A549; 2.44 µM (inactive) with U-251; 4.6 µM (inactive) in the assay on LOX IMVI. In addition, the GI50 in the assay on HL-60 is 2.58 µM (inactive); in the assay with SW-620 it was 4.03 µM (inactive); in the assay on NCI-H522, 2.7 µM (inactive); in the assay with OVCAR-5 it was 10.3 µM (inactive); in the assay on COLO 205 it was 5.51 µM (inactive).
As to `C[n+]1c(-c2ccc(/C=N\NC(=O)c3ccc(C(=O)N/N=C/c4ccc(-c5cn6ccsc6[n+]5C)cc4)cc3)cc2)cn2ccsc21`, the GI50 is 23 µM (inactive) in the assay with KM12; 15.8 µM (inactive) in the assay on HT-29; 20 µM (inactive) with UACC-62; 17.7 µM (inactive) with NCI/ADR-RES; 17.9 µM (inactive) with HOP-62; 30.8 µM (inactive) with SK-MEL-2. In addition, the GI50 in the assay on OVCAR-8 was 14.8 µM (inactive); with MDA-N, 32.8 µM (inactive); with IGROV-1 it was 20 µM (inactive); in the assay on A549, 24.5 µM (inactive); in the assay on U-251, 25.6 µM (inactive); in the assay with HL-60, 16.5 µM (inactive). Besides, the GI50 was 18.5 µM (inactive) with SW-620, 31.1 µM (inactive) in the assay on NCI-H522, 17.3 µM (inactive) in the assay with OVCAR-5 and 25 µM (inactive) with COLO 205.
As to `NCCCCN(CCCN)C(=O)OCc1ccccc1`, the GI50 with HCT-116, in the assay on KM12, in the assay on HT-29, in the assay on UACC-62, in the assay on SK-MEL-28 and with NCI/ADR-RES was > 100 µM (inactive) in each case. For the same compound, the GI50 with HOP-62, in the assay with SK-MEL-2, in the assay on OVCAR-8, with IGROV-1, in the assay with A549 and in the assay with U-251 was > 100 µM (inactive) throughout. Also, the GI50 in the assay with HL-60, in the assay on SW-620, in the assay with T47D, in the assay on NCI-H522, with OVCAR-5 and in the assay on COLO 205 was > 100 µM (inactive) each time.
